The source of these data is publication PMC11396062, “The n-Butanol Extract Obtained from the Inner Bark of Tabebuia rosea (Bertol.) DC, Specioside, and Catalposide Induce Leukemia Cell Apoptosis in the Presence of Apicidin” (Molecules, 2024).

Experiment [1] concerns Jurkat cells. The experiment in a line: MTT cell viability assay, Jurkat cells. Type of experiment: cell-based, human. The note with it: for IC50: Homo sapiens, Jurkat, MTT, n = 3; for SI (selectivity index): IC50 PBMC / IC50 Jurkat. The procedure:
(§1) Jurkat and THP-1 cell lines were purchased from the American Type Culture Collection (ATCC, Rockville, MD, USA); Jurkat is a human lymphocytic cell line representing acute T-cell leukemia, and THP-1 is a monocytic cell line that represents acute myelogenous leukemia (AML). […] Cat Nos. […] The cells were maintained at 37 °C in a humidified atmosphere with 5% CO2. The culture medium was exchanged with fresh medium every 2-3 days. Peripheral blood mononuclear cells (PBMCs) were isolated from normal human venous blood. Further, 10 milliliters of human blood was mixed with 10 mL of RPMI-1640 containing 50 μL of heparin and gradually poured over 1 mL of HISTOPAQUE®-1119 (Sigma). The plasma was removed by centrifugation at 3000 rpm for 30 min. The peripheral blood mononuclear cell-containing layer was collected with a pipette and diluted in 4 mL of PBS. PBMCs were harvested by centrifugation at 1500 rpm for 10 min at room temperature, resuspended in RPMI-1640 with 10% FBS, and incubated at 37 °C in 5% CO2 humidified air. […] Doxorubicin was used as a reference standard drug (positive control). After treatment, the medium was discarded; 200 μL of RPMI 1640 medium without phenol red containing 0.5 mg/mL MTT (Sigma Chemical Co., Saint Louis, MO, USA; Cat. No. […] The plates were incubated for four hours at 37 °C with 5% CO2 in a humidified atmosphere. The medium was discarded, and 100 μL of DMSO was added to solubilize the formazan crystals. The absorbance was measured with an ELISA microplate reader at 492 nm (ELx800; BioTek Instruments Inc., Winooski, VT, USA). The percentage of viable cells was calculated on the basis of the nontreated control (taken as 100%). […] Three independent assays were performed, each in triplicate. The selectivity index corresponds to the ratio of the IC50 value calculated for the activity of synthesized compounds on a regular cell line (PBMCs) to that of the IC50 calculated for cancer cell lines (Jurkat and THP-1). Values greater than two were optimal for an efficient selectivity index.
In general terms: Tetrazolium assays rely on reduction of a dye to a coloured formazan, in cell work by metabolically active cells.

For experiment [2], the system named is THP-1 cells. Description: MTT cell viability assay, THP-1 cells. It counts as cell-based, human. The settings on record: for IC50: Homo sapiens, MTT, n = 3, read-out: IC50. The procedure: as §1
In experiment [3] the test system is Peripheral blood mononuclear cells (PBMCs). The experiment in a line: MTT cell viability assay, PBMC (normal cells). The settings on record: Homo sapiens, n = 3. It counts as cell-based. The protocol:
Jurkat and THP-1 cell lines were purchased from the American Type Culture Collection (ATCC, Rockville, MD, USA); Jurkat is a human lymphocytic cell line representing acute T-cell leukemia, and THP-1 is a monocytic cell line that represents acute myelogenous leukemia (AML). Jurkat and THP-1 cells were maintained in RPMI 1640 medium (Sigma) supplemented with 10% heat-inactivated fetal bovine serum (FBS) (Gibco Cat No. 16140071, Waltham, MA USA), 200 μg/mL penicillin, 200 μg/mL streptomycin, 400 μg/mL neomycin (GIBCO, Cat No. 15640-055), 5 μg/mL amphotericin, and 1 mM sodium pyruvate (all from Sigma Chemical Co., Saint Louis, MO, USA; Cat Nos. A9528-50 MG, M7522-100ML, and S8636-100ML, respectively). The cells were maintained at 37 °C in a humidified atmosphere with 5% CO2. The culture medium was exchanged with fresh medium every 2–3 days. Peripheral blood mononuclear cells (PBMCs) were isolated from normal human venous blood. Further, 10 milliliters of human blood was mixed with 10 mL of RPMI-1640 containing 50 µL of heparin and gradually poured over 1 mL of HISTOPAQUE®-1119 (Sigma). The plasma was removed by centrifugation at 3000 rpm for 30 min. The peripheral blood mononuclear cell-containing layer was collected with a pipette and diluted in 4 mL of PBS. PBMCs were harvested by centrifugation at 1500 rpm for 10 min at room temperature, resuspended in RPMI-1640 with 10% FBS, and incubated at 37 °C in 5% CO2 humidified air.
Cell viability was determined by measuring the mitochondrial activity of live cells via the metabolism of the tetrazolium substrate 3-(4,5-dimethylthiazol-2-yl)-2,5-diphenyl tetrazolium bromide (MTT) and converting it to purple formazan crystals. Briefly, the cells (2 × 10^4 cells/well) were treated with 25, 50, 100, 200, or 400 μg/mL extract diluted in DMSO (at a final concentration of 0.5%) and incubated for 12, 24, or 48 h. Catalposide and specioside were tested at concentrations of 20, 50, and 100 μg/mL for 12, 24, and 48 h. For apicidin, 0.5, 1, and 2 μM apicidin were tested for 24 and 48 h. Doxorubicin was used as a reference standard drug (positive control). After treatment, the medium was discarded; 200 μL of RPMI 1640 medium without phenol red containing 0.5 mg/mL MTT (Sigma Chemical Co., Saint Louis, MO, USA; Cat. No. M2128-500MG) was then added to each well. The plates were incubated for four hours at 37 °C with 5% CO2 in a humidified atmosphere. The medium was discarded, and 100 μL of DMSO was added to solubilize the formazan crystals. The absorbance was measured with an ELISA microplate reader at 492 nm (ELx800; BioTek Instruments Inc., Winooski, VT, USA). The percentage of viable cells was calculated on the basis of the nontreated control (taken as 100%). The IC50 (concentration causing a 50% reduction in cellular viability) values for all the tested compounds were evaluated in Excel using the nonlinear regression curve method. Three independent assays were performed, each in triplicate.

The test system of experiment [4] is THP-1 cells. The experiment in a line: Fluorescence microscopy of nuclear morphology (propidium iodide and Hoechst staining). It counts as cell-based, human. The note with it: THP-1, APC pretreatment, extract 25 μg/mL. The procedure: Fluorescence microscopy was used to observe cell nuclear morphology, followed by propidium iodide (50 µg/mL) and Hoechst 333342 (1 mg/mL) staining. THP-1 cells (1 × 10^5 cells/well) were treated with fresh media (control) and with 25, 50, or 100 µg/mL extract for 24 h; 400 µM doxorubicin was used as a positive control. Further, 10 microliters of the cell suspension was mixed with 90 µL of the dye, incubated in a water bath for 5 min at 37 °C, and wrapped in aluminum foil. The cells were examined under an Olympus IX53 fluorescence microscope (Olympus Corporation, Tokyo, Japan). The following formula was used to calculate the percentage of apoptotic cells.

For experiment [5], the system named is THP-1 cells. The experiment in a line: Flow cytometric apoptosis, Annexin V-CF647/7-AAD. The note with it: THP-1, 24 h, apicidin pretreatment. Type of experiment: cell-based, human. The procedure: In 96-well plates, 8 × 10^4 cells were treated with 25, 50, and 100 µg/mL extract and 400 µM doxorubicin (positive control) for 24 and 48 h. The cells were washed with 1X PBS, and apoptotic cells were detected by staining with 100 µL of Annexin V-CF647 and 5 µL of the 7-AAD Apoptosis Annexin Red Kit (FCCH100108 FlowCellect, Millipore, Darmstadt, Germany). The cells were incubated at room temperature for 15 min in the dark and analyzed on a Guava Millipore flow cytometer (Merck Millipore, Bedford, MA, USA) using InCyte software (version 3.1, Merck Millipore). The percentage of annexin V-positive cells was evaluated.

The subject of experiment [6] is THP-1 cells. The experiment in a line: Mitochondrial membrane potential (JC-1). It counts as cell-based, human. The settings on record: THP-1, JC-1, 24 h. The procedure:
The Λᴪm was measured using a Guava Mitochondrial Depolarization Kit (4500-0250 Millipore, Darmstadt, Germany). After pretreatment with 1 µM apicidin for 24 h, the cells were exposed to various concentrations of the extract (25, 50, and 100 µg/mL) for 24 h. The cells were collected and suspended in 100 µL of PBS containing JC-1 and 7-AAD after incubation at 37 °C for 15 min. The fluorescence intensity of the cells was analyzed in a Guava Millipore flow cytometer (Merck Millipore, Bedford, MA, USA) using InCyte software (version 3.1, Merck Millipore).

Experiment [7] concerns THP-1 cells. Description: Cell cycle analysis by flow cytometry. Type of experiment: cell-based, human. The settings on record: THP-1, APC pretreatment. The protocol:
After treatment with the extract, 7 × 10^4 cells were harvested, washed with PBS, fixed with 200 µL of ice-cold 70% ethanol, and maintained at 4 °C for 4 h before staining. The cell pellet was washed in 1X PBS, resuspended in 200 µL of Guava Cell Cycle reagent (#4500-0220, Millipore), and incubated in the dark at 37 °C for 30 min before analysis with a Guava flow cytometer (Merck Millipore, Bedford, MA, USA) using InCyte software (version 3.1, Merck Millipore).. Centrifugation was performed at 1200 rpm for 5 min at room temperature for each step.

Each structure is given as a SMILES string. Values after ≈ are worked out from the molar mass of the structure shown. Like-named read-outs stand apart in the source and are kept apart here.

The IC50 is the midpoint of a concentration-inhibition curve. Consider `COc1cccc2c1C(=O)c1c(O)c3c(c(O)c1C2=O)C[C@@](O)(C(=O)CO)C[C@@H]3O[C@H]1C[C@H](N)[C@H](O)[C@H](C)O1` [Doxorubicin, reference compound], for which the IC50 amounted to 0.339 ± 1.2 mg/L (≈ 0.624 µM) in experiment [1] (12 h); 0.258 ± 0.1 mg/L (≈ 0.475 µM) in experiment [1] (24 h); 0.05 mg/L (≈ 0.092 µM) in experiment [1] (48 h); 1.27 ± 0.2 mg/L (≈ 2.33 µM) in experiment [2] (THP-1, 12 h); 0.189 ± 0.1 mg/L (≈ 0.348 µM) in experiment [2] (THP-1, 24 h); 0.005 ± 0.01 mg/L (≈ 0.0092 µM) in experiment [2] (THP-1, 48 h). For the same compound, the IC50 in experiment [3] (12 h) was found to be 1.36 ± 0.15 mg/L (≈ 2.51 µM); in experiment [3] (24 h) it was 0.224 ± 0.1 mg/L (≈ 0.412 µM); in experiment [3] (48 h) it was 0.018 ± 0.1 mg/L (≈ 0.0331 µM). Moreover, the “SI (selectivity index)” value was determined as 4.02 in experiment [1] (12 h); 0.86 in experiment [1] (24 h); 0.36 in experiment [1] (48 h); 1.07 in experiment [2] (IC50 PBMC / IC50 THP-1, 12 h); 1.183 in experiment [2] (IC50 PBMC / IC50 THP-1, 24 h); 3.6 in experiment [2] (IC50 PBMC / IC50 THP-1, 48 h).

Turning to `CCC(=O)CCCCC[C@@H]1NC(=O)[C@H]2CCCCN2C(=O)[C@H]([C@@H](C)CC)NC(=O)[C@H](Cc2cn(OC)c3ccccc23)NC1=O` [APC, apicidin], in experiment [4], the “apoptosis (nuclear morphology) after APC pretreatment” value was “increased apoptosis”. The “percentage of apoptotic cells, apicidin pretreatment compared with catalposide or specioside treatment” value in experiment [5] is “increased the percentage of apoptotic cells”. The “depolarization of the mitochondrial membrane” value in experiment [6] is reported as “decreased mitochondrial membrane polarization”. The “G0/G1 phase arrest with APC pretreatment” value in experiment [7] is on record as “increased”.
